Values quoted from earlier work as cited in paper PMC6203792, “An IL13Rα2 peptide exhibits therapeutic activity against metastatic colorectal cancer” (British Journal of Cancer, 2018).
pKd: −log10 of the molar value.

Biological target: IL13Rα2
Conditions: read-out: affinity of IL-13/IL13Rα2 molecular recognition

## IL-13: Recombinant human IL-13
  pKd: ~9.30
